System: UA196 worms
Experiment: Chemotaxis assay of UA196 worms
Type: in vivo, C. elegans
Conditions: 50 µM ligand, day 10, E. coli attractant vs ethanol repellent
Protocol: For chemotaxis assay, the Chemotaxis (CTX) media plates (2% Agar, 5 mM KH2PO4, 1 mM CaCl2, 1 mM MgSO4, 75 µM FUDR), referred to as PLATE 7, and CTX buffer (5 mM KH2PO4, 1 mM CaCl2, and 1 mM MgSO4) were prepared using previous protocols[24],[78],[85],[86]. The PLATE 7 (without ligand) were treated with ligand (50 µM, stock conc. = 10 mM in DMSO) that was dissolved in CTX buffer (total volume = 300 µL) and was spotted atop the CTX media plates at 20 °C, referred to as PLATE 8. For CTX assay, we prepared another plate referred to as PLATE 9, which was PLATE 7 divided into four equal quadrants and designated as A and C (diagonally opposite), B and D (diagonally opposite). […] The experiment on the WMicroTracker ARENA plate reader (Phylumtech, Santa Fe, Argentina) started within 1 h of the transfer of the worms at 20 °C. […] On day 3, a total of 50 worms were transferred to the center of the PLATE 9 using CTX buffer ( ~20 µL) and the number of worms were counted under an Olympus microscope (SZ-6145, Waltham, MA). […] The worm activity was monitored using the WMicroTracker ARENA plate reader (Phylumtech, Santa Fe, Argentina) at 20 °C for 2 h. […] For day 10, 50 worms (N2 or UA196) from PLATE 7 (without ligand) or PLATE 8 (with 50 µM ligand) were transferred to PLATE 9 using CTX buffer ( ~ 20 µL) and the number of worms were counted under an Olympus microscope (SZ-6145, Waltham, MA). […]

Cc1ccc(NC(=O)c2ccc(NC(=O)c3ccc([N+](=O)[O-])c(NCCc4c[nH]c5ccccc45)n3)c(NCC3CCCCC3)n2)c(OCC(=O)O)n1 [NS132]
behavioral deficits / chemotaxis index of UA196 worms, in words: able to rescue behavioral deficits

From publication PMC11061149, “Protein mimetic 2D FAST rescues alpha synuclein aggregation mediated early and post disease Parkinson’s phenotypes” (Nature Communications, 2024)
